“And” between values parts separate entries of the source, which are not always exact repeats. Equal entries are not always repeated.
What was measured:
[1] = test system: Plasmodium falciparum strain 3D7; experiment: Parasite growth inhibition (drug susceptibility test, pLDH readout); type: cell-based; conditions: 3D7; for IC50: Plasmodium falciparum
Procedure: (§1) The cultivation of P. falciparum was conducted according to Trager’s method with some modification. Precisely, parasites were kept in culture flasks with RPMI1640 medium supplemented with 10% human plasma and 2% fresh human erythrocytes and incubated at 37 °C with the gas condition of 5% CO2 and 5% O2. The parasitemia (percentage of infected erythrocytes to total erythrocytes) were kept within 0.25–10%. Culture medium was replaced, and fresh erythrocytes were supplied every 2–3 days. Drug susceptibility test was conducted according to Desjardins’s method[18] with some modification. […] […] The plates were kept at 37 °C with the gas condition of 5% CO2 and 5% O2 for 72 h and then parasite growth was quantified with Makler’s method to detect plasmdoial lactate dehydrogenase[19] with some modification. Precisely, culture plates were kept in freezer overnight and then thawed at 37 °C to disrupt the erythrocytes and parasite cells. In the new 96-well titer plates, 100 μl of enzyme reaction solution (110 mM Li-lactate, 0.5 mM acetylpyridine-adenine dinucleotide, 50 mM Tris (pH 7.5), 10 mM EDTA, 50 mM KCl, and 15 g l^−1 PEG6000) and 20 µl of freeze-thaw culture were mixed in each well and then kept at room temperature for 30 min. The detection solution was prepared by mixing equal volume of 2 mg ml^−1 nitro blue tetrazolium and 0.1 mg ml^−1 phenazine ethosulfate and 20 µl of the solution was added to each well.

[2] = test system: Plasmodium falciparum strain K1; experiment: microbe, parasite or virus in culture; type: cell-based; conditions: K1; for IC50: Plasmodium falciparum
Procedure: as §1

parasite = test system: parasite; parameters: method as in PMID 27602946; conditions: increasing concentrations of L-Phe; cited from earlier work
PfcFRS mutant (L550V) = experiment: Kinetic parameter (Km) determination, malachite green; type: biochemical, Plasmodium falciparum; conditions: PfcFRS-L550V versus PfcFRS WT
Procedure: (§2) In both cases the reaction was carried out for 2 h at 37 °C. Data were fitted to Michaelis–Menten equations using Prism graph 6.0 software.

N[C@@H](Cc1ccccc1)C(=O)O = experiment: as above; type: biochemical, Plasmodium falciparum; conditions: other: PfcFRS mutant (L550V); ATP saturating 500 μM; pH 7.5; 37.0 °C
Procedure: as §2

[3] = substrate: N[C@@H](Cc1ccccc1)C(=O)O; experiment: as above; type: biochemical, Plasmodium falciparum; conditions: other: PfcFRS WT; ATP saturating 500 μM; pH 7.5; 37.0 °C
Procedure: as §2

[4] = target: the molecule itself; experiment: crystal structure; PvcFRS with BRD1389 and Mg2+, space group P2(1)2(1)2, one αβ heterodimer per asymmetric unit, 3.0 Å
[5] = target: the molecule itself; experiment: SEC; purified PvcFRS on a Superdex 200 analytical gel filtration column

Molecule: C[C@@H]1CC[C@H]2[C@@H](C)C(=O)O[C@@H]3O[C@@]4(C)CC[C@@H]1[C@]32OO4 [Artemisinin, artemisinin]
- % Parasite Growth ([1]; 0.000195313 ug/mL): 91.8%
- % Parasite Growth ([1]; 0.000390625 ug/mL): 88.1%
- % Parasite Growth ([1]; 0.00078125 ug/mL): 90.1%
- % Parasite Growth ([1]; 0.0015625 ug/mL): 91.8%
- % Parasite Growth ([1]; 0.003125 ug/mL): 91.0%
- % Parasite Growth ([1]; 0.00625 ug/mL): 92.6%
- % Parasite Growth ([1]; 0.0125 ug/mL): 61.0%
- % Parasite Growth ([1]; 0.025 ug/mL): 3.0%
- % Parasite Growth ([1]; 0.05 ug/mL): 2.5%
- % Parasite Growth ([1]; 0.1 ug/mL): 2.3%
- % Parasite Growth ([1]; 0.2 ug/mL): 2.8%
- IC50 [1]: 0.0143 µg/mL and 50.5 nM
- % Parasite Growth ([2]; 0.000195313 ug/mL): 95.0%
- % Parasite Growth ([2]; 0.000390625 ug/mL): 92.3%
- % Parasite Growth ([2]; 0.00078125 ug/mL): 92.8%
- % Parasite Growth ([2]; 0.0015625 ug/mL): 94.4%
- % Parasite Growth ([2]; 0.003125 ug/mL): 92.0%
- % Parasite Growth ([2]; 0.00625 ug/mL): 76.5%
- % Parasite Growth ([2]; 0.0125 ug/mL): 6.1%
- % Parasite Growth ([2]; 0.025 ug/mL): 2.9%
- % Parasite Growth ([2]; 0.05 ug/mL): 3.5%
- % Parasite Growth ([2]; 0.1 ug/mL): 3.3%
- % Parasite Growth ([2]; 0.2 ug/mL): 3.6%
- IC50 [2]: 0.00811 µg/mL and 28.7 nM

Molecule: COc1ccc(NC(=O)N2CCCCN3[C@H](CN)[C@H](c4ccc(C#Cc5ccccc5)cc4)[C@@H]3C2)cc1 [BRD1095]
- EC50 shift with L-Phe (parasite): higher EC50 values with increasing concentrations of L-Phe

Molecule: CCN(CC)CCCC(C)Nc1ccnc2cc(Cl)ccc12 (centres unmarked) [Chloroquine, chloroquine]
- IC50 [1]: 0.00914 µg/mL and 17.7 nM
- IC50 [2]: 0.139 µg/mL and 269 nM

Molecule: N[C@@H](Cc1ccccc1)C(=O)O [L-Phe, L-phenylalanine]
- increase in Km value for L-Phe, mutant vs WT (PfcFRS mutant (L550V)): 10 fold and ~ 10 fold

Molecule: PfcFRS mutant (L550V) (Plasmodium falciparum 3D7; L550V)
- Km (N[C@@H](Cc1ccccc1)C(=O)O): 1.85 ± 0.84 µM

B1: PfcFRS wild type (WT) (Plasmodium falciparum 3D7) (protein)
chain: MSTNNVEEKKNEELYNLLNILEEEFNLSKIENKNNNKNDDGDDDDVNKREDNNNNEYYKKLKDEKGLDVLINEYTTSLKISKKYNIDHNKVMGMIKKLETLYYIINLIKSFNTYHLSDEGKQYLKEGSPEFIVIKYVIQNNKCTLEDLKKNLGKIGDIGLNTNLKNRTIQLNKADKCLTCNCNLHDIQDFTQIYLDIINQYGHDEELLFAHLKNKNHTKNALNNNEMKNSCKDNNIINNLIQDLKKRKLLEIKKNSYSHVIKTSIFKKDIKKQITDINYLLLKNEEYKKYDIKKYNFFSSGKKINKGNIHLLTKQMRTFKEIFFSLGFEEMETHNYVESSFWCFDALYIPQQHPSRDLQDTFFIKEPETCIDKFVDTEYIDNIKRVHTHGDYGSFGWNYKWKLEESKKNVLRTHTTANSCRALFKLAKEYKEAGCIKPKKYFSIDRVFRNENLDSTHLAEFHQVEGLIIDKNIGLSHLIGTLAAFYKHIGIHKLKFKPTFNPYTEPSMEIYGYHEQSKKWLEVGNSGIFRPEMLRSMGFSEEVSVIAWGLSLERPTMIKYNIKNIRDLFGYKSVV
- Km [3]: 0.25 ± 0.017 µM

B2: PvcFRS αβ heterodimer as in the crystal (alpha subunit without residues 1-270) (complex, Plasmodium vivax)
chain 1: LTYLLIKNEEYKKYQVKKYNFFSSGKKMNKGNIHLLIRQMRTFKDVFVSLGFEEMNTHNYVESSFWCFDALYIPQQHPSRDLQDTFFIKVPEMCQEEFTDQSYIENVKRVHSVGDYGSFGWNYQWELKSTKKNVLRTHTTANSCRALFQLAKEYQKTGSIIPKKFFSIDRVFRNENLDSTHLAEFHQVEGLIIDRNLGLSHLIGTLSAFYKYIGISKLRFKPTFNPYTEPSMEVYGYHEENKKWLEVGNSGIFRPEMLRAMGFPPEVSVIAWGLSLERPTMIKYSIRNIRDLFGYRSVI
chain 2: MPTISVHEEDLIEKLGEKIEEEKLNDICFEFGIEIDDVEYKGEKKIYKIEVPANRYDLVCVEGLCRALKSFIGKYENVSYALLTNSEEACVKEKHFMRVDESVDERRSYVVSAVLKNVKMNENVYNNIIELQEKLHHNLGKKRILLAIGIHDYDKINFPVAYKFEEKEKINFIPLNETQNVNGNNFINFYQDNINLKSYLKIISDFEKFPVIVDAGGQILSLPPIINCDYTKITYDTRNLFIECTAIDRNKAEIAVNIICSMLSEYCTPKYSIHSFFVQYDKNHKAEKGNGYLYPVFKNKTLTCHMDYVRKLSGILNLSVKDVEPLLKKMMITSKVIDSSTFTVDVPFYRSDIMHFCDIVEDIAIAYGYGNIVSEKIEIAKKNSLSACTELFRNVLAECTYTEVMTNALLSKRENYDCMLRKHRSYDDRKINLDEYNPLAPPVQIMNSKTSEYEIVRTSLIVNMLKFVSANKHRELPLRFFEIGDVSYTTYDRTDTNAVNKRYLSVIFADKFTAGLEEAHGMLETVLKEFQLFSDYKIEEKSKENVAIRSDVFYKLVPKEDPSFLNERVVDIVLCPHNLKFGIMGIIHPKVLENFSIDIPVSVIEINIETIMDVLMM
notes: PvcFRS alpha subunit, Plasmodium vivax, gene PVX_081300; N-terminal domain (residues 1-270) absent in the crystal; PvcFRS beta subunit, Plasmodium vivax, gene PVX_090880, full length; also called heterodimer (αβ); PvcFRS-BRD1389 complex; source: E. coli B834, both subunits co-expressed, purified (Ni-NTA, heparin); crystallised with BRD1389 and MgCl2
- binding result [4]: binds

B3: PvcFRS αβ heterodimer (full-length subunits) (complex, Plasmodium vivax)
chain 1: MQAKAQEEQKGEELSQFLQALEEEFALCQEGGGDKREADGPSLENAEAEELANRRAYYLQLKEERNVLVEESKHVTSLHMSSKHNIEHAKVLGMAKKLETLYYVVNHVRSFNTYQLTEEGKEYLRDGSPEHVTLRYVMEQEGCTLEDLKKLFGKKGEIGLNINLKKKKIELRKSDKRLFPHVEGSAHSLVDETRCYLQKVEAHGNDEGALVSHLKGILPPEKGEKKEEDEANNLIKELKKRKLIEAKKISYIYIIRTNLFTKEIKKQITDLTYLLIKNEEYKKYQVKKYNFFSSGKKMNKGNIHLLIRQMRTFKDVFVSLGFEEMNTHNYVESSFWCFDALYIPQQHPSRDLQDTFFIKVPEMCQEEFTDQSYIENVKRVHSVGDYGSFGWNYQWELKSTKKNVLRTHTTANSCRALFQLAKEYQKTGSIIPKKFFSIDRVFRNENLDSTHLAEFHQVEGLIIDRNLGLSHLIGTLSAFYKYIGISKLRFKPTFNPYTEPSMEVYGYHEENKKWLEVGNSGIFRPEMLRAMGFPPEVSVIAWGLSLERPTMIKYSIRNIRDLFGYRSVI
chain 2: B2 chain 2
notes: PvcFRS alpha subunit, Plasmodium vivax, gene PVX_081300, full length; PvcFRS beta subunit, Plasmodium vivax, gene PVX_090880, full length; The heterodimer that pairs with itself to the (αβ)2 heterotetramer in solution; also called heterodimer (αβ); source: E. coli B834, both subunits co-expressed, purified (Ni-NTA, heparin)
- stoichiometry N [5]: 2
